In patent US11655235B2, “Pyrrolidine and piperidine compounds” (YUHAN CORPORATION, priority 2019, dated 2023):

Key:
Format in all cases: biochemical
DPP4 = DPP4 (Homo sapiens, UniProt P27487); test: DPP4 inhibition, fluorogenic substrate H-Gly-Pro-AMC; parameters: purchased R&D Systems; conditions: recombinant human DPP4
recombinant human DPP7 = target: T1, recombinant human DPP7 (Homo sapiens, UniProt Q9UHL4); test: DPP7 inhibition, fluorogenic substrate Lys-Pro-AMC; conditions: recombinant human DPP7
T1 construct: purchased R&D Systems
How it was run: (§1)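 Inhibitors are titrated in an 8-point series into the enzyme's assay buffer (DMSO no more than 0.5%). Substrate cleavage at 25 °C is followed by fluorescence, excitation 380 nm and emission 460 nm. IC50 values come from a four-variable logistic model.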

recombinant human PREP = target: T2, recombinant human PREP (Homo sapiens, UniProt P48147); test: PREP inhibition, fluorogenic substrate Z-Gly-Pro-AMC; conditions: Inhibitory Activity (IC50, nM) PREP, recombinant human PREP
T2 construct: purchased R&D System
T2 sequence (P48147 1-710): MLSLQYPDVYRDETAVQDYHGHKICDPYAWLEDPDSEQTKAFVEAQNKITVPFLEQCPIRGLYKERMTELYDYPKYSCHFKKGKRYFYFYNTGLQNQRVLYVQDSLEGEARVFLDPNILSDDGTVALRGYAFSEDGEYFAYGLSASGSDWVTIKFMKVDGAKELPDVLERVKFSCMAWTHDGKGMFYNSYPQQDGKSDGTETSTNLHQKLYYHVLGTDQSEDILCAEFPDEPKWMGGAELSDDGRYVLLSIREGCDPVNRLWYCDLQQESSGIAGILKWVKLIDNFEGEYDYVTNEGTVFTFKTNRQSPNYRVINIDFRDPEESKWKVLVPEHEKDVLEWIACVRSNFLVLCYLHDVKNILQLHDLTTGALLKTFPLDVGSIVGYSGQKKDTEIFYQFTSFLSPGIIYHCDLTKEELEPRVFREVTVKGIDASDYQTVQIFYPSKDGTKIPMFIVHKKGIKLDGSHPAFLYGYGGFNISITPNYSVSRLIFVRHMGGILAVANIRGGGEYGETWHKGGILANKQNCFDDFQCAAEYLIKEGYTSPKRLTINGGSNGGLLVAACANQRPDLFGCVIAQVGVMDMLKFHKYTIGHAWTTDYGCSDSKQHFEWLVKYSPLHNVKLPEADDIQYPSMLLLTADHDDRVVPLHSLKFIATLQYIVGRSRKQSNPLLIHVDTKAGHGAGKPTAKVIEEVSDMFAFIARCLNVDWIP
How it was run: as §1

Recombinant human FAP = target: T3, Recombinant human FAP (Homo sapiens, UniProt Q12884); test: FAP FRET assay, FGF21-sequence FRET peptide substrate; conditions: FRET peptide with human FGF21 sequence, 6 μM, 37° C.
T3 construct: purchased R&D systems
T3 sequence (Q12884 1-760): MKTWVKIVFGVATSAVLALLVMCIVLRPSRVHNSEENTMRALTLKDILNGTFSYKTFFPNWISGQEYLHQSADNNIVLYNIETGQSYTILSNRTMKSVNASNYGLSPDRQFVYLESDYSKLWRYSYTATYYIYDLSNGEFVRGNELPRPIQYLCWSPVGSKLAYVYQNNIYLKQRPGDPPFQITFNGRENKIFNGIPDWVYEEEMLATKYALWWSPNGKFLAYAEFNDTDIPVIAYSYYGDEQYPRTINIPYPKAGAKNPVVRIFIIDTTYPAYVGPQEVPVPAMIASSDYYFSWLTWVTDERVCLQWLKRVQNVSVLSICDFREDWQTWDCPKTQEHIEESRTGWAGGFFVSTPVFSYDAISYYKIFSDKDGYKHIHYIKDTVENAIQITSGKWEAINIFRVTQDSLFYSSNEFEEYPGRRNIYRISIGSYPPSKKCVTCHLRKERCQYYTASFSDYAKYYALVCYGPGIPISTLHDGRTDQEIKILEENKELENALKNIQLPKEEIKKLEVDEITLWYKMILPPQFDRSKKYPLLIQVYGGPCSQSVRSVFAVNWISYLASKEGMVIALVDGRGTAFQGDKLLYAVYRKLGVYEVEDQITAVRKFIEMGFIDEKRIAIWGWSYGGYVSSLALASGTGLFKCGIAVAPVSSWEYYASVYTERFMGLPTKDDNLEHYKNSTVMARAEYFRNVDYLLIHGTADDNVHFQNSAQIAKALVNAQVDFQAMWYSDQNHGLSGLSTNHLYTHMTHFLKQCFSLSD
How it was run: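 FRET peptide bearing human FGF21 sequence (6 μM final) cleaved by 10 ng recombinant human FAP at 37° C in HEPES pH 7.2 buffer with NaCl, BSA and EDTA, DMSO up to 0.1%. Signal-rate decrease versus uninhibited control fitted to a four-variable logistic model for IC50.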

recombinant human DPP9 = target: T4, recombinant human DPP9 (Homo sapiens, UniProt Q86TI2); test: DPP9 inhibition, fluorogenic substrate H-Gly-Pro-AMC; conditions: recombinant human DPP9
T4 construct: purchased R&D Systems
How it was run: as §1

Chain of DPP4 (P27487 whole entry): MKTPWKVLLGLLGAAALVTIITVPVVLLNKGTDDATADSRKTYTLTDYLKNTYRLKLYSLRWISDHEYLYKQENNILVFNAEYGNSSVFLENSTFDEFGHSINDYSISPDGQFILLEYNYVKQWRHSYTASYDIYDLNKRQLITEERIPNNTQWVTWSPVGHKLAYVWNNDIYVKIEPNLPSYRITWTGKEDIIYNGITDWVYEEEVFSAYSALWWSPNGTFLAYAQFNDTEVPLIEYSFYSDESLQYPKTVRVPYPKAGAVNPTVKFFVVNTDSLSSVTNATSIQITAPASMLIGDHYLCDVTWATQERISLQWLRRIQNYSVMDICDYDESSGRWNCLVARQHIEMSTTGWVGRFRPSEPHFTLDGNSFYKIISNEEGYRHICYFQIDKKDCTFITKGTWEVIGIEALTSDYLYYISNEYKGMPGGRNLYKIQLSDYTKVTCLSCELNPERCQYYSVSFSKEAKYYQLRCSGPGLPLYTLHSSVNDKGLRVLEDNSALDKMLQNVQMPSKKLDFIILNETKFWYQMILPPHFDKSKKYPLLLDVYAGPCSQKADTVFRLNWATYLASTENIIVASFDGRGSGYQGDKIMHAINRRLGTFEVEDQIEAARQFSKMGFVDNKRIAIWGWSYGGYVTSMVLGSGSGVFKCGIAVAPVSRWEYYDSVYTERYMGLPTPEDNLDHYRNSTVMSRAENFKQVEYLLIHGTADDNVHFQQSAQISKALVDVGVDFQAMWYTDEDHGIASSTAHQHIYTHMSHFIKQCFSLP
T4 sequence (Q86TI2 whole entry): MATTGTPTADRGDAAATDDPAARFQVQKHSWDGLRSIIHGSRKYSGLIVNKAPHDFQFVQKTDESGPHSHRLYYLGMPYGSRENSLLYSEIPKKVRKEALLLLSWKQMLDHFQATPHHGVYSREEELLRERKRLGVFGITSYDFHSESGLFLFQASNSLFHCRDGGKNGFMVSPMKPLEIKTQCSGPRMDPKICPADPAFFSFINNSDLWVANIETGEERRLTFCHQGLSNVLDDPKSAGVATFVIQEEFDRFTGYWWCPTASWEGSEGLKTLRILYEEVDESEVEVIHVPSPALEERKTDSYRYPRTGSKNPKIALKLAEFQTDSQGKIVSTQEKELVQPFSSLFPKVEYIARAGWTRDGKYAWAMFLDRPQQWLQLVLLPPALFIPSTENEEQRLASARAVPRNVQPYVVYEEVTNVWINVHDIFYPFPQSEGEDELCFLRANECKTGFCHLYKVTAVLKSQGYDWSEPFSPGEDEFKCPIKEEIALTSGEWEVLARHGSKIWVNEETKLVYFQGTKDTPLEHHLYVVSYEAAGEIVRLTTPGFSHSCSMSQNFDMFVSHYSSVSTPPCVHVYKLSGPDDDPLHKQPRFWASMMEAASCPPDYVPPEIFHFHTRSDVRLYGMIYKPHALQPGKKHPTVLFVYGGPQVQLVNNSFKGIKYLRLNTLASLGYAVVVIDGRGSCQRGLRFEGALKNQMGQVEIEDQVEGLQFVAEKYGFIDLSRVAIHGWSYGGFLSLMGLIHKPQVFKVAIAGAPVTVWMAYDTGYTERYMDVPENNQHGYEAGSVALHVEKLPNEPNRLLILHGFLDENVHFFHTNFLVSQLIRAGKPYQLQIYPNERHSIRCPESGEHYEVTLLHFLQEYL

SMILES	IC50 (DPP4) [nM]	IC50 (recombinant human DPP7) [nM]	IC50 (recombinant human PREP) [nM]	IC50 (Recombinant human FAP) [nM]	IC50 (recombinant human DPP9) [nM]
N#C[C@@H]1CCCN1C(=O)CN1CC[C@@H](Nc2cc(F)cc3ncccc23)C1 [Example 197, (2S)-1-[2-[(3R)-3-[(7-fluoro-5-quinolyl)amino]pyrrolidin-1-yl]acetyl]pyrrolidine-2-carbonitrile]	13400	4120	14700	5.2	23800
COc1cc(N[C@@H]2CCN(CC(=O)N3CCC[C@H]3C#N)C2)c2cccnc2c1 [Example 198, (2S)-1-[2-[(3R)-3-[(7-methoxy-5-quinolyl)amino]pyrrolidin-1-yl]acetyl]pyrrolidine-2-carbonitrile]	9460	901	2920	8.6	14900
Cc1cc(N[C@@H]2CCN(CC(=O)N3C[C@@H](F)C[C@H]3C#N)C2)cc2cccnc12 [Example 213, (2S,4S)-4-fluoro-1-[2-[(3R)-3-[(8-methyl-6-quinolyl)amino]pyrrolidin-1-yl]acetyl]pyrrolidine-2-carbonitrile]	1740	393	3020	3.5	1390
CNC(=O)c1ccc(NC2CCN(CC(=O)N3C[C@@H](F)C[C@H]3C#N)CC2)c2cccnc12 [Example 390, N-methyl-5-[[1-[2-oxo-2-[(2S,4S)-2-cyano-4-fluoro-pyrrolidin-1-yl]ethyl]-4-piperidyl]amino]quinoline-8-carboxamide]	1520	358	1420	5.9	1320
N#C[C@@H]1C[C@H](F)CN1C(=O)CN1CC[C@H](Nc2ccc(NC(=O)c3ccccc3)c3ncccc23)C1 [Example 298, N-[5-[[(3S)-1-[2-oxo-2-[(2S,4S)-2-cyano-4-fluoro-pyrrolidin-1-yl]ethyl]pyrrolidin-3-yl]amino]-8-quinolyl]benzamide]	1860	257	6520	2.1	3070
CCN(c1ccc2ncccc2c1)C1CCN(CC(=O)N2CCC[C@H]2C#N)CC1 [Example 303, (2S)-1-[2-[4-[ethyl(6-quinolyl)amino]-1-piperidyl]acetyl]pyrrolidine-2-carbonitrile]	≥ 100000	1940	483	9.2	≥ 100000
COc1ccc2nccc(OC3CCN(CC(=O)N4CCC[C@H]4C#N)CC3)c2c1 [Example 426, (2S)-1-[2-[4-[(6-methoxy-4-quinolyl)oxy]-1-piperidyl]acetyl]pyrrolidine-2-carbonitrile]	54800	9400	10800	3.9	≥ 100000
N#C[C@@H]1C[C@H](F)CN1C(=O)CN1CC[C@@H](Nc2ccnc3c(Cl)cccc23)C1 [Example 189, (2S,4S)-4-fluoro-1-[2-[(3R)-3-[(8-chloro-4-quinolyl)amino]pyrrolidin-1-yl]acetyl]pyrrolidine-2-carbonitrile]	3500	2580	1150	10	1510
COc1cnc2cccc(N[C@@H]3CCN(CC(=O)N4C[C@@H](F)C[C@H]4C#N)C3)c2c1 [Example 205, (2S,4S)-4-fluoro-1-[2-[(3R)-3-[(3-methoxy-5-quinolyl)amino]pyrrolidin-1-yl]acetyl]pyrrolidine-2-carbonitrile]	796	1760	7500	2.6	3040
N#C[C@@H]1CCCN1C(=O)CN1CCC(Nc2ccc(C(=O)Nc3ccccc3)c3ncccc23)CC1 [Example 396, 5-[[1-[2-oxo-2-[(2S)-2-cyanopyrrolidin-1-yl]ethyl]-4-piperidyl]amino]-N-phenyl-quinoline-8-carboxamide]	16400	875	1770	3.1	7420
N#C[C@@H]1C[C@H](F)CN1C(=O)CN1CCC(Nc2cccc3ncsc23)CC1 [Example 372, (2S,4S)-1-[2-[4-(1,3-benzothiazol-7-ylamino)-1-piperidyl]acetyl]-4-fluoro-pyrrolidine-2-carbonitrile]	1650	645	2000	51.6	945
N#C[C@@H]1C[C@H](F)CN1C(=O)CN1CCC(Nc2cc(Cl)c3ncccc3c2)CC1 [Example 376, (2S,4S)-1-[2-[4-[(8-chloro-6-quinolyl)amino]-1-piperidyl]acetyl]-4-fluoro-pyrrolidine-2-carbonitrile]	3510	226	870	7	4370
COc1ccc(N[C@@H]2CCN(CC(=O)N3C[C@@H](F)C[C@H]3C#N)C2)c2cccnc12 [Example 178, (2S,4S)-4-fluoro-1-[2-[(3R)-3-[(8-methoxy-5-quinolyl)amino]pyrrolidin-1-yl]acetyl]pyrrolidine-2-carbonitrile]	1360	5960	2350	10.1	2570
N#C[C@@H]1C[C@H](F)CN1C(=O)CN1CC[C@@H](Nc2cc(F)c3ncccc3c2)C1 [Example 214, (2S,4S)-4-fluoro-1-[2-[(3R)-3-[(8-fluoro-6-quinolyl)amino]pyrrolidin-1-yl]acetyl]pyrrolidine-2-carbonitrile]	1290	764	3030	3.8	970
N#C[C@@H]1C[C@H](F)CN1C(=O)CN1CCC(Oc2cccc3ncccc23)CC1 [Example 425, (2S,4S)-4-fluoro-1-[2-[4-(5-quinolyloxy)-1-piperidyl]acetyl]pyrrolidine-2-carbonitrile]	7240	2150	1330	7	33800
CCOc1ccc(N[C@H]2CCN(CC(=O)N3CCC[C@H]3C#N)C2)c2cccnc12 [Example 274, (2S)-1-[2-[(3S)-3-[(8-ethoxy-5-quinolyl)amino]pyrrolidin-1-yl]acetyl]pyrrolidine-2-carbonitrile]	11000	960	14900	4.4	5550
N#C[C@@H]1C[C@H](F)CN1C(=O)CN1CC[C@@H](Nc2cnc3nc(Cl)ccc3c2)C1 [Example 172, (2S,4S)-4-fluoro-1-[2-[(3R)-3-[(7-chloro-1,8-naphthyridin-3-yl)amino]pyrrolidin-1-yl]acetyl]pyrrolidine-2-carbonitrile]	1870	4900	4240	9.3	5400
CCN(c1ccc2ncccc2c1)C1CCN(CC(=O)N2C[C@@H](F)C[C@H]2C#N)CC1 [Example 306, (2S,4S)-1-[2-[4-[ethyl(6-quinolyl)amino]-1-piperidyl]acetyl]-4-fluoro-pyrrolidine-2-carbonitrile]	24300	477	129	4.4	13200
